The text below walks through data of patent publication US20120183536A1, “METHODS OF USING CORTICOTROPIN-RELEASING FACTOR FOR THE TREATMENT OF CANCER” (priority 2009, published 2012).

For experiment [1], the system named is U87 Fluc brain tumor. An excerpt:
The results were obtained with SCID mice bearing brain tumors produced by injection with the human glioblastoma cell line U87 Flue. The U87 Flue cell line was created by stably transducing U87 cells with a lentiviral construct containing the luc gene.

For experiment [2], the system named is Colo205 human colon tumor cells. Briefly: Colo205 human colon tumor xenograft in nu/nu mice, tumor volume. It is filed as in vivo. How it is done:
In one study, 8-12 week old female nu/nu mice were injected with 1×10^6 Colo205 human colon tumor cells subcutaneously. Once tumors developed and reached an average size of 100-150 mg, mice received administration of: (1) saline (control) (twice daily, subcutaneous); (2) CRF (100 μg/kg) (twice daily, subcutaneous); (3) CRF (200 μg/kg) (twice daily, subcutaneous); (4) bevacizumab (Avastin®) (5 mg/kg) (twice weekly, intraperitoneal); or (5) CRF (200 μg/kg) (twice daily, subcutaneous) and bevacizumab (Avastin®) (5 mg/kg) (twice weekly, intraperitoneal) (FIG. 11A). Body weight and tumor volume were measured twice a week until the endpoint of the experiment, i.e., the earlier of either 60 days or a tumor volume of 1000 mm^3.
(Xenograft models place foreign cells or tissue in a host animal.)

For experiment [3], the system named is human Non-Small Cell Lung Carcinoma (NSCLC) tumor cell lines. Briefly: human Non-Small Cell Lung Carcinoma xenograft in nu/nu mice, tumor volume. It is filed as in vivo. The procedure:
In a second study, 8-12 week old female nu/nu mice were injected with 1 mm^3 tumor fragments of human Non-Small Cell Lung Carcinoma (NSCLC) tumor cell lines subcutaneously. Once tumors developed and reached an average size of 80-120 mg, mice received administration of: (1) saline (control) (twice daily, subcutaneous); (2) CRF (100 μg/kg) (twice daily, subcutaneous); (3) CRF (200 μg/kg) (twice daily, subcutaneous); (4) bevacizumab (Avastin®) (5 mg/kg) (twice weekly, intraperitoneal); or (5) CRF (200 μg/kg) (twice daily, subcutaneous) and bevacizumab (Avastin®) (5 mg/kg) (twice weekly, intraperitoneal) (FIG. 12A). Body weight and tumor volume were measured twice a week until the endpoint of the experiment, i.e., the earlier of either 60 days or achieving a tumor weight of 2 g.).

Experiment [4] has as its system MX-1 human breast carcinoma. Briefly: MX-1 human breast carcinoma xenograft in nu/nu mice, tumor volume. Type of experiment: in vivo. The procedure:
In another study, 8-12 week old female nu/nu mice were injected with 1 mm^3 tumor fragments of MX-1 human breast carcinoma subcutaneously. Once tumors developed and reached an average size of 80-120 mg, mice received administration of: (1) saline (control) (twice daily, subcutaneous); (2) CRF (100 μg/kg) (twice daily, subcutaneous); (3) CRF (200 μg/kg) (twice daily, subcutaneous); (4) bevacizumab (Avastin®) (5 mg/kg) (twice weekly, intraperitoneal); or (5) CRF (200 μg/kg) (twice daily, subcutaneous) and bevacizumab (Avastin®) (5 mg/kg) (twice weekly, intraperitoneal) (FIG. 13A). Body weight and tumor volume were measured twice a week until the endpoint of the experiment, i.e., the earlier of either 60 days or achieving a tumor weight of 1.5 g.).

The test system of experiment [5] is malignant brain tumor. Briefly: Clinical study: patients with malignant brain tumor, tumor size by MRI and survival. Type of experiment: in vivo, human. The procedure:
Patients with malignant brain tumor were treated with 2 mg/day (1 mg dose, twice daily) of either human CRF subcutaneously. […] Additionally, of the 30 patients who had received treatment for at least 6 months, 10 experienced a decrease in tumor size.

Experiment [6] deals with brain tumor in metastatic patients. Briefly: Clinical study: metastatic patients, brain tumor size by MRI and survival. It is filed as in vivo, human. Conditions: 2 mg/day s.c.
Where [7] appears, read: bevacizumab 5 mg/kg twice weekly, intraperitoneal.
The mark [8] stands for this setting: low dose of CRF, 30 μg/kg s.c. twice daily.
[9] abbreviates: CRF 100 or 200 μg/kg twice daily, subcutaneous.
Where [10] appears, read: of the 3 metastatic patients of FIG. 10.

Like-named read-outs stand apart in the source and are kept apart here.

`O=NN(CCCl)C(=O)NCCCl` [BiCNU, carmustine, reference compound]: the “brain tumor progression (photon emission)” value in experiment [1] (BiCNU 20 mg/kg intraperitoneally 5 days/week) is listed as “continued to grow”.
Consider `Cn1nnc2c(C(N)=O)ncn2c1=O` [TMZ, temozolomide, reference compound], for which, in experiment [1] (TMZ 40 mg/kg intraperitoneally 5 days/week), the “mice still alive at the end of the 80-day study period” value stood at 40%.
Take “bevacizumab (Avastin®): angiogenesis inhibitor bevacizumab (Avastin®) [reference compound]”: the “tumor volume compared to control” value in experiment [2] (setting [7]), in experiment [3] (setting [7]) and in experiment [4] (setting [7]) was “reduction in tumor volume” in each case.
In the case of corticorelin acetate [CRF], in experiment [1] (setting [8]), the “brain tumor progression (photon emission)” value is recorded as “did not progress or progressed more slowly”; the “mean survival time (comparison)” value was “between mice, that were administered a high dose of CRF, and mice that had received no treatment or were administered dexamethasone”; the “mice still alive at the end of the 80-day study period” value is listed as 60%; the “survival compared with untreated, dexamethasone or chemotherapeutic agents” value is “survived longer”. For the same molecule, in experiment [2] (setting [9]), the “tumor volume compared to control” value is listed as “reduction in tumor volume”. Besides, the “tumor volume compared to control” value in experiment [3] (setting [9]) is recorded as “reduction in tumor volume”. Moreover, the “tumor volume compared to control” value in experiment [4] (setting [9]) is listed as “reduction in tumor volume”. The “survival after CRF treatment, some patients” value in experiment [5] (FIGS. 8 and 9) is recorded as 1-2 years. Also, the “patients exhibiting a reduction in tumor size at the last time point measured” value in experiment [5] (of the 10 patients of FIG. 9, 2 mg/day s.c.) was found to be 8 patients. The “patients exhibiting a reduction in tumor size” value in experiment [5] (of the 20 patients of FIG. 8, 2 mg/day (1 mg twice daily) s.c.) came to 6 patients. Also, the “patients exhibiting a maintenance in tumor size” value in experiment [5] (of the 20 patients of FIG. 8, 2 mg/day s.c.) is 5 patients. Also, the “patients exhibiting a reduction in tumor size by over 50%” value in experiment [5] (of the 20 patients of FIG. 8, after 9 months of treatment, 2 mg/day s.c.) came to 3 patients. Moreover, the “patients experiencing a decrease in tumor size” value in experiment [5] (of the 30 patients treated for at least 6 months, 2 mg/day s.c.) was 10 patients. The “survival of the overwhelming majority of patients” value in experiment [5] (projected survival 3-6 months, FIGS. 8 and 9) is on record as “live well beyond the projected 3-6 months”. The “reduction in tumor size” value in experiment [5] (two of the patients, 2 mg/day s.c.) is recorded as “around 90%”. In experiment [6], the “response of metastatic patients to treatment” value is recorded as “responded very favorably”. For the same molecule, in experiment [6] (setting [10]), the “metastatic patients exhibiting survival beyond the projected 3-6 months” value is listed as 3 patients and the “metastatic patients showing a reduction in tumor size at the last timepoint measured” value worked out at 2 patients.
